Experimental data: ChEMBL document CHEMBL4011581, “Interference with bile salt export pump function is a susceptibility factor for human liver injury in drug development” (Toxicol Sci, 2010)

Each compound was assayed against Bile salt export pump (Homo sapiens, UniProt O95342) (assay: Inhibition of human BSEP expressed in fall armyworm sf9 cell plasma membrane vesicles assessed as reduction in vesicle-associated [3H]-taurocholate transport preincubated for 10 mins prior to ATP addition measured after 15 mins in presence of [3H]-taurocholate by topcount based membrane vesicle transport assay).
Type: ADME

SMILES | IC50 [µM]
Clc1ccc2nsnc2c1NC1=NCCN1 [TIZANIDINE] | > 135
O=C(c1ccc(F)cc1)C1CCN(CCn2c(=O)[nH]c3ccccc3c2=O)CC1 [KETANSERIN] | > 135
CCCNC(=O)NS(=O)(=O)c1ccc(Cl)cc1 [CHLORPROPAMIDE] | > 135
CC(C)/N=c1\cc2n(-c3ccc(Cl)cc3)c3ccccc3nc-2cc1Nc1ccc(Cl)cc1 [CLOFAZIMINE] | 12.9
Oc1ccc2c(c1)[C@@]13CCCC[C@@]1(O)[C@@H](C2)N(CC1CCC1)CC3 [BUTORPHANOL] | > 135
CNCCC=C1c2ccccc2CCc2ccccc21 [NORTRIPTYLINE] | > 135
CC(C)CN(C[C@@H](O)[C@H](Cc1ccccc1)NC(=O)O[C@H]1CCOC1)S(=O)(=O)c1ccc(N)cc1 | 25 to 45
C=CCc1ccccc1OCC(O)CNC(C)C (stereo unspecified) [ALPRENOLOL] | > 135
CCC1=C(C)CN(C(=O)NCCc2ccc(S(=O)(=O)NC(=O)N[C@H]3CC[C@H](C)CC3)cc2)C1=O [GLIMEPIRIDE] | 15.7
NC(N)=Nc1nc(CSCCC(N)=NS(N)(=O)=O)cs1 [FAMOTIDINE] | > 135
CC[C@H]1OC(=O)[C@H](C)C(=O)[C@H](C)[C@@H](O[C@@H]2O[C@H](C)C[C@H](N(C)C)[C@H]2O)[C@](C)(OC)C[C@@H](C)C(=O)[C@H](C)[C@H]2N(CCCCn3cnc(-c4cccnc4)c3)C(=O)O[C@]12C [TELITHROMYCIN] | 4
C=CCN1CC[C@]23c4c5ccc(O)c4O[C@H]2C(=O)CC[C@@]3(O)[C@H]1C5 [NALOXONE] | > 135
CC[C@H]1CN2CCc3cc(OC)c(OC)cc3[C@@H]2C[C@@H]1C[C@H]1NCCc2cc(OC)c(OC)cc21 [EMETINE] | > 135
CCCCNc1cc(C(=O)O)cc(S(N)(=O)=O)c1Oc1ccccc1 [BUMETANIDE] | > 135
Cc1cccc(Nc2cc(Cl)nc(SCC(=O)O)n2)c1C [PIRINIXIC ACID] | 75 to 105
CC(C)[C@@H]1NC(=O)[C@H](C)OC(=O)[C@@H](C(C)C)NC(=O)[C@@H](C(C)C)OC(=O)[C@H](C(C)C)NC(=O)[C@H](C)OC(=O)[C@@H](C(C)C)NC(=O)[C@@H](C(C)C)OC(=O)[C@H](C(C)C)NC(=O)[C@H](C)OC(=O)[C@@H](C(C)C)NC(=O)[C@@H](C(C)C)OC1=O [VALINOMYCIN] | 1.6
COc1ccc2cc([C@H](C)C(=O)O)ccc2c1 [NAPROXEN] | > 135
Cc1c(O)cccc1C(=O)N[C@@H](CSc1ccccc1)[C@H](O)CN1C[C@H]2CCCC[C@H]2C[C@H]1C(=O)NC(C)(C)C | 11.8
CNC1=Nc2ccc(Cl)cc2C(c2ccccc2)=[N+]([O-])C1 [CHLORDIAZEPOXIDE] | 25 to 45
COc1ccccc1N1CCN(CCCNc2cc(=O)n(C)c(=O)n2C)CC1 | > 135
CCOc1ccc(/C=C2\NCCc3cc(OCC)c(OCC)cc32)cc1OCC [DROTAVERINE] | 37

SMILES | IC50 [µM]
CN(C)C(=O)Oc1cccc([N+](C)(C)C)c1 [NEOSTIGMINE] | > 135
CN(CCOc1ccc(CC2SC(=O)NC2=O)cc1)c1ccccn1 (stereo unspecified) [ROSIGLITAZONE] | 4.4
CC(C)Cc1ccc(C(C)C(=O)O)cc1 (stereo unspecified) [IBUPROFEN] | > 135
CN1C(C(=O)Nc2ccccn2)=C(O)c2sccc2S1(=O)=O [TENOXICAM] | > 135
CN1CCC[C@H]1c1cccnc1 [NICOTINE] | > 135
CC[C@@]1(O)C(=O)OCc2c1cc1n(c2=O)Cc2cc3ccccc3nc2-1 [CAMPTOTHECIN] | > 135
O=C(NCCN1CCOCC1)c1ccc(Cl)cc1 [MOCLOBEMIDE] | > 135
NCC[C@H](O)C(=O)N[C@@H]1C[C@H](N)[C@@H](O[C@H]2O[C@H](CN)[C@@H](O)[C@H](O)[C@H]2O)[C@H](O)[C@H]1O[C@H]1O[C@H](CO)[C@@H](O)[C@H](N)[C@H]1O [AMIKACIN] | > 135
CCc1ccc(CCOc2ccc(CC3SC(=O)NC3=O)cc2)nc1 (stereo unspecified) [PIOGLITAZONE] | 0.4
CC(C)(C)NC[C@H](O)COc1nsnc1N1CCOCC1 [TIMOLOL] | > 135
CCC1(c2ccccc2)C(=O)NC(=O)NC1=O [PHENOBARBITAL] | > 135
CC1=NS(=O)(=O)c2cc(Cl)ccc2N1 [DIAZOXIDE] | > 135
N=C(N)NC(=O)Cc1c(Cl)cccc1Cl [GUANFACINE] | > 135
CN1CC[C@]23c4c5ccc(O)c4O[C@H]2[C@@H](O)C=C[C@H]3[C@H]1C5 [MORPHINE] | > 135
C[C@H]1C[C@H]2[C@@H]3CCC4=CC(=O)C=C[C@]4(C)[C@@]3(F)[C@@H](O)C[C@]2(C)[C@@]1(O)C(=O)CO [BETAMETHASONE] | > 135
CCn1cc(C(=O)O)c(=O)c2cc(F)c(N3CCN(C)CC3)cc21 [PEFLOXACIN] | > 135
CN1CCN(C2=Nc3cc(Cl)ccc3Nc3ccccc32)CC1 [CLOZAPINE] | > 135
CN1CCOC(c2ccccc2)c2ccccc2C1 (stereo unspecified) [NEFOPAM] | > 135
COC(=O)C1=C(C)NC(C)=C(C(=O)OCCN(C)Cc2ccccc2)C1c1cccc([N+](=O)[O-])c1 (stereo unspecified) [NICARDIPINE] | 7.9
N=C(N)c1ccc(OCCCCCOc2ccc(C(=N)N)cc2)cc1 [PENTAMIDINE] | > 135
CCN1CCC[C@H]1CNC(=O)c1c(OC)ccc(Br)c1OC [REMOXIPRIDE] | > 135

SMILES | IC50 [µM]
COc1ccc2cc1Oc1cc3c(cc1OC)CC[N+](C)(C)[C@H]3Cc1ccc(cc1)Oc1c(OC)c(OC)cc3c1[C@@H](C2)[N+](C)(C)CC3 [METOCURINE] | > 135
COC[C@H]1OC(=O)c2coc3c2[C@@]1(C)C1=C(C3=O)[C@@H]2CCC(=O)[C@@]2(C)C[C@H]1OC(C)=O [WORTMANNIN] | 13.6
COc1cccc2c1C(=O)c1c(O)c3c(c(O)c1C2=O)C[C@@](O)(C(=O)CO)C[C@@H]3O[C@H]1C[C@H](N)[C@H](O)[C@H](C)O1 [DOXORUBICIN] | > 135
COc1cc2nc(N3CCN(C(=O)c4ccco4)CC3)nc(N)c2cc1OC [PRAZOSIN] | > 135
S=C=Nc1cccc2ccccc12 [1-NAPHTHYLISOTHIOCYANATE] | 60 to 75
c1ccc2c(c1)OCC(C1=NCCN1)O2 (stereo unspecified) [IDAZOXAN] | > 135
Cc1ccc(C)c(OCCCC(C)(C)C(=O)O)c1 [GEMFIBROZIL] | > 135
CN1CCc2cccc3c2[C@H]1Cc1ccc(O)c(O)c1-3 [APOMORPHINE] | > 135
CC(=O)Nc1ccc(O)cc1 [ACETAMINOPHEN] | > 135
Cc1cc(NS(=O)(=O)c2ccc(N)cc2)no1 [SULFAMETHOXAZOLE] | > 135
Cc1ccc(C(=O)Nc2ccc(S(=O)(=O)O)c3cc(S(=O)(=O)O)cc(S(=O)(=O)O)c23)cc1NC(=O)c1cccc(NC(=O)Nc2cccc(C(=O)Nc3cc(C(=O)Nc4ccc(S(=O)(=O)O)c5cc(S(=O)(=O)O)cc(S(=O)(=O)O)c45)ccc3C)c2)c1 [SURAMIN] | > 135
Cn1c(=O)c2[nH]cnc2n(C)c1=O [THEOPHYLLINE] | > 135
CCN(CC)CCNC(=O)c1ccc(NC(C)=O)cc1 [ACECAINIDE] | > 135
CC(C)NCC(O)c1ccc(NS(C)(=O)=O)cc1 (stereo unspecified) [SOTALOL] | > 135
Cc1onc(-c2c(Cl)cccc2Cl)c1C(=O)N[C@@H]1C(=O)N2[C@@H]1SC(C)(C)[C@@H]2C(=O)O [DICLOXACILLIN] | 45 to 60
CO[C@H]1/C=C/O[C@@]2(C)Oc3c(C)c(O)c4c(O)c(c(/C=N/N5CCN(C)CC5)c(O)c4c3C2=O)NC(=O)/C(C)=C\C=C\[C@H](C)[C@H](O)[C@@H](C)[C@@H](O)[C@@H](C)[C@H](OC(C)=O)[C@@H]1C [RIFAMPIN] | 25.3
CC1(COc2ccc(CC3SC(=O)NC3=O)cc2)CCCCC1 (stereo unspecified) [CIGLITAZONE] | 37.8
CC(C)(C)NC(=O)[C@H]1CC[C@H]2[C@@H]3CC[C@H]4NC(=O)C=C[C@]4(C)[C@H]3CC[C@]12C [FINASTERIDE] | 28.2
CN1C(=O)CN=C(c2ccccc2)c2cc(Cl)ccc21 [DIAZEPAM] | > 135
Cc1ccnc2c1NC(=O)c1cccnc1N2C1CC1 [NEVIRAPINE] | > 135
NC[C@@H]1O[C@H](O[C@H]2[C@@H](O)[C@H](O[C@@H]3[C@@H](O)[C@H](N)C[C@H](N)[C@H]3O[C@H]3O[C@H](CN)[C@@H](O)[C@H](O)[C@H]3N)O[C@@H]2CO)[C@H](N)[C@@H](O)[C@@H]1O [FRAMYCETIN] | > 135

SMILES | IC50 [µM]
COc1ccc(Cc2nccc3cc(OC)c(OC)cc23)cc1OC [PAPAVERINE] | > 135
CS(=O)(=O)CCNCc1ccc(-c2ccc3ncnc(Nc4ccc(OCc5cccc(F)c5)c(Cl)c4)c3c2)o1 [LAPATINIB] | 6.5
CC(C)NNC(=O)c1ccncc1 [IPRONIAZID] | > 135
CC(=O)CCCCn1c(=O)c2c(ncn2C)n(C)c1=O [PENTOXIFYLLINE] | > 135
CO[C@H]1/C=C/O[C@@]2(C)Oc3c(C)c(O)c4c(c3C2=O)C2=NC3(CCN(CC(C)C)CC3)NC2=C(NC(=O)/C(C)=C\C=C\[C@H](C)[C@H](O)[C@@H](C)[C@@H](O)[C@@H](C)[C@H](OC(C)=O)[C@@H]1C)C4=O [RIFABUTIN] | 26.7
CNS(=O)(=O)Cc1ccc2[nH]cc(CCN(C)C)c2c1 | > 135
COc1ccc(C(CN(C)C)C2(O)CCCCC2)cc1 (stereo unspecified) [VENLAFAXINE] | > 135
COc1cc(NC(C)CCCN)c2ncccc2c1 (stereo unspecified) [PRIMAQUINE] | 32.7
CC(C)(C)NCC(O)c1cc(O)cc(O)c1 (stereo unspecified) [TERBUTALINE] | > 135
CN(C)C(=O)CCSC(SCCC(=O)O)c1cccc(/C=C/c2ccc3ccc(Cl)cc3n2)c1 (stereo unspecified) [MK-571] | 3.5
CCCCc1ncc(/C=C(\Cc2cccs2)C(=O)O)n1Cc1ccc(C(=O)O)cc1 [EPROSARTAN] | > 135
Nc1cc(-c2ccncc2)c[nH]c1=O [INAMRINONE] | > 135
COc1cc(Cc2cnc(N)nc2N)cc(OC)c1OC [TRIMETHOPRIM] | > 135
N[C@@H](CC(=O)N1CCn2c(nnc2C(F)(F)F)C1)Cc1cc(F)c(F)cc1F [SITAGLIPTIN] | > 135
C=CC1=C(C(=O)O)N2C(=O)[C@@H](NC(=O)/C(=N\OCC(=O)O)c3csc(N)n3)[C@H]2SC1 [CEFIXIME] | > 135
O=C1CN=C(c2ccccc2)c2cc([N+](=O)[O-])ccc2N1 [NITRAZEPAM] | > 135
C[C@@H]1CCC[C@H](C)N1NC(=O)c1ccc(Cl)c(S(N)(=O)=O)c1 [CLOPAMIDE] | > 135
NC[C@H]1O[C@H](O[C@H]2[C@H](O)[C@@H](O[C@H]3O[C@H](CO)[C@@H](O)[C@H](N)[C@H]3O)[C@H](N)C[C@@H]2N)[C@H](O)[C@@H](O)[C@@H]1O [KANAMYCIN] | > 135
